From article PMC4198483 (Cancer cell, 2014)
Residue numbers refer to the chain shown, from its start.

How the values were obtained:
TIPE3 (TNFAIP8L3) [1] = biological target: T1, TIPE3 (TNFAIP8L3) (Mus musculus, UniProt Q3TBL6); assay: vesicle sedimentation assay; assay type: binding; conditions: 20 µM protein; 1000 µM vesicles of 10% lipid + 90% PC
T1 sequence (Q3TBL6 1-204): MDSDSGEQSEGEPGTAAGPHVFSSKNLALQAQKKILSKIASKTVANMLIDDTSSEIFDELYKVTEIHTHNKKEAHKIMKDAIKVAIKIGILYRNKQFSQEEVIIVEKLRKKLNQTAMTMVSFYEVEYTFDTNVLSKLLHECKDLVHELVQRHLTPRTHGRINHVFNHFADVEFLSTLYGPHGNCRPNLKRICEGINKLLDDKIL

TIPE3 (TNFAIP8L3) [2] = biological target: T2, TIPE3 (TNFAIP8L3) (Mus musculus, UniProt Q3TBL6, K33Q/K34Q/K38Q/K42Q); assay: vesicle sedimentation assay; assay type: binding; conditions: 20 µM protein; 1000 µM vesicles of 10% lipid + 90% PC
T2 sequence (Q3TBL6 1-204 K33Q/K34Q/K38Q/K42Q): T1 sequence (Q3TBL6 1-204) with K33Q, K34Q, K38Q, K42Q

| Substance | % protein bound to vesicles (TIPE3 (TNFAIP8L3) [1]) [%] | % protein bound to vesicles (TIPE3 (TNFAIP8L3) [2]) |
| --- | --- | --- |
| PtdIns(3,4,5)P3 | > 60 | – |
| PtdIns(4,5)P2 | > 60 | ~ 30% |
